Assay results taken from patent US11253589B2, “Modulation of the immune response” (priority 2007, dated 2022).

Key:
mutant AHR = settings: Okey et al. 1989; cited from earlier work
CD4+ Foxp3+ Treg = experiment: CD4+Foxp3+ Treg levels in AHR-d mice; type: in vivo; settings: TCDD 1 μg/mouse
Excerpt: (§1) To confirm that the effects on EAE were mediated by the activation of AHR, we used C57BL/6 mice carrying the d allele of the ahr gene (AHR-d mice). This allele codes for a mutant AHR with a 10 fold reduction in its affinity for TCDD and other ligands (Okey et al., Mol Pharmacol. 35, 823-30 (1989)) due to mutations in its ligand binding sites.

CD4+Foxp3:GFP+ Treg = experiment: Treg suppressive activity assay; type: cell-based, mouse
Method: Cells were cultured in serum-free X-VIVO 20™ media (BioWhittaker, Walkersville, Md., USA) for 72 hours. During the last 16 hours, cells were pulsed with 1 μCi of [^3H]thymidine (PerkinElmer, Waltham, Mass., USA) followed by harvesting on glass fiber filters and analysis of incorporated [^3H]thymidine in a beta-counter (1450 Microbeta, Trilux, PerkinElmer). Alternatively, culture supernatants were collected […] activation and the cytokine concentration was determined by ELISA using antibodies for IFN-γ, IL-17, IL-4, IL-10 from BD Biosciences and antibodies to TGF-β from R&D Systems. For suppression assays, MACS purified CD4^+CD25^− T cells from naïve C57BL/6 mice (1-5×10^4 cells/well) were stimulated with antibodies to CD3 and C57BL/6 irradiated spleen cells (0.3-1.5×10^4 cells/well) for 3 days in the presence of different ratios of CD4^+ GFP^+ retrovirus-transduced T cells.
To investigate the active suppression of MOG35-55-specific Teff by Treg, Foxp3^gpf knock in mice were immunized with MOG35-55/CFA, treated daily with intreaperitoneal ITE ([…]) and the recall response to MOG35-55 and a mitogenic antibody to CD3 antibody was studied on FACS-sorted CD4^+ T cells and CD4^+ FoxP3:GFP− Teff. […] This suppressed response to MOG35-55 was lost upon removal of the CD4^+FoxP3:GFP^+ Treg (FIG. 26). To further analyze the MOG35-55-specific suppressive activity of the CD4^+FoxP3:GFP^+ Treg, they were cocultured at different ratios and assayed for the suppression of MOG35-55 or anti-CD3-triggered proliferation of CD4^+FoxP3:GFP− Teff form 2D2 mice, which harbor a TCR specific for MOG35-55.

AHR-d mice = experiment: EAE induced with MOG35-55/CFA in AHR-d mice; type: in vivo; settings: TCDD 1 μg/mouse
Method: C57BL/6 mice were given a single intraperitoneal (ip) dose of TCCD, and one day later EAE was induced by immunization with MOG35-55 in CFA. TCDD was also administered orally (1 μg/mouse) to determined whether an effective dose of this ligand can be delivered via oral administration and whether this dose is capable of reducing EAE development. EAE was induced by injecting the mice subcutaneously with […] of the MOG35-55 peptide ([…] (SEQ ID NO: 156)) in complete Freund adjuvant oil. In addition, the mice received 150 ng of pertussis toxin (Sigma-Aldrich) ip on days 0 and 2. Clinical signs of EAE were assessed according to the following score: 0, no signs of disease; 1, loss of tone in the tail; 2, hind limb paresis; 3, hind limb paralysis; 4, tetraplegia; 5, moribund.
as §1

C57BL/6 mice = experiment: EAE in recipient mice after transfer of CD4+ T cells from treated mice; type: in vivo, mouse
Excerpt: To identify the mechanism responsible for the decreased proliferation to MOG35-55 in TCDD-treated animals shown in FIG. 4D, the CD4^+CD25^+ Treg population was depleted with magnetic beads. […] The control of the pathogenic T cell response was mediated by CD4^+CD25^+ Treg, their depletion abrogated the protective effect of the transferred cells (P<0.001, two-way ANOVA, n=4; FIG. 5C).
To confirm that the protective effect of TCDD on EAE was Treg mediated we depleted the natural Treg with antibodies to CD25 prior to TCDD treatment. […] This protective effect was lost when CD4^+CD25^+ T cells were depleted, see FIG. 5h and Table 5.
The control of the pathogenic T cell response was mediated by CD4^+CD25^+ Treg, their depletion from the transferred population abrogated the protective effect of the transferred cells. Thus, the Treg induced by the activation of AHR with ITE inhibit the progression of EAE.

CD4+Foxp3+ Treg = CD4+Foxp3+ Treg quantified by FACS in treated mice; type: in vivo, mouse; design: number of CD4+FoxP3+ Treg / number of CD4+Foxp3+ T cells / levels of LAP+ regulatory T cells / number of CD4+FoxP3:GFP+ Treg in blood and spleen: dose or concentration left out as unconfirmed
[1] = system: IgG serum antibodies to myelin antigens; experiment: Antigen microarray of serum antibody response to myelin; type: in vivo, mouse; settings: TCDD-treated mice that did not develop EAE, FDR < 0.05
Method: The antigens listed in Table 1 were spotted onto Epoxy slides (TeleChem, Sunnyvale, Calif., USA) as described (Quintana et al., Proc Natl Acad Sci USA 101 Suppl 2, 14615-21 (2004)). Antigens were spotted in replicates of 6, the microarrays were blocked for 1 h at 37° C. with 1% bovine serum albumin, and incubated for 2 hours at 37° C. with a 1:100 dilution of the test serum in blocking buffer. The arrays were then washed and incubated for 45 min at 37° C. with goat anti-mouse IgG Cy3-conjugated detection antibodies (Jackson ImmunoResearch Labs, West Grove, Pa., USA). The arrays were scanned with a ScanArray 4000X scanner (GSI Luminomics, Billerica, Mass., USA). Antigen reactivity was defined by the mean intensity of binding to the replicates of that antigen on the microarray. Raw data were normalized and analyzed using the GeneSpring software (Silicon Genetics, Redwood City, Calif., USA) with the non-parametric Wilcoxon-Mann-Whitney test, using the Benjamini and Hochberg method with a false discovery rate (FDR) of 0.05 to determine significance. The samples were clustered using a pairwise average linkage algorithm based on Spearman's rank correlation as a distance measure. […]

[2] = recipients of 5 × 10^6 CD4+ T cells from TCDD treated mice
[3] = recipients of 5 × 10^6 CD4+CD25- T cells from TCDD treated mice
[4] = ITE ip daily, MOG35-55/CFA, spleens
[5] = ITE orally daily, MOG35-55/CFA, spleens

SMILES: Clc1cc2c(cc1Cl)Oc1cc(Cl)c(Cl)cc1O2 [TCDD, 2,3,7,8 tetrachlorodibenzo-p-dioxin]
- reduction in affinity of mutant AHR (d allele) for TCDD (mutant AHR): 10 fold
- levels of CD4+ Foxp3+ Treg (CD4+ Foxp3+ Treg): did not increase the levels
- MOG35-55-specific suppressive activity of CD4+Foxp3:GFP+ T cells (CD4+Foxp3:GFP+ Treg; Treg expanded in vivo by TCDD administration and MOG35-55 immunization): increased MOG35-55-specific suppressive activity
- proliferation and suppressive activity of CD4+Foxp3:GFP+ Treg purified from naïve mice (CD4+Foxp3:GFP+ Treg; stimulation with antibodies to CD3 and CD28 and TCDD): did not proliferate and did not show increased suppressive activity
- Mean day of onset (Mean ± SD) (AHR-d mice): 17.3 ± 3.0 days
- Mean maximum score (mean ± SD) (AHR-d mice): 2.2 ± 1.4
- progression of EAE (AHR-d mice): did not inhibit the progression of EAE
- Mean day of onset (Mean ± SD) (C57BL/6 mice; [2]): 13.3 ± 0.6 days
- Mean maximum score (mean ± SD) (C57BL/6 mice; [2]): 0.7 ± 0.8
- Mean day of onset (Mean ± SD) (C57BL/6 mice; [3]): 11.0 ± 0.0 days
- Mean maximum score (mean ± SD) (C57BL/6 mice; [3]): 2.6 ± 1.8
- development of EAE (C57BL/6 mice; transfer of 5×10^6 CD4+ T cells from TCDD-treated mice): significantly inhibited the development of EAE
- number of CD4+FoxP3+ Treg (CD4+Foxp3+ Treg; TCDD ip, draining lymph nodes, without immunization): small increase
- frequency of CD4+Foxp3+ T cells (CD4+Foxp3+ Treg; TCDD ip, spleen, 21 days after EAE induction): significant increase in the frequency
- rebound in Treg numbers (CD4+Foxp3+ Treg; natural Treg depleted with antibodies to CD25 prior to TCDD treatment, day 7): faster rebound in their Treg numbers
- number of CD4+Foxp3+ T cells (CD4+Foxp3+ Treg; single TCDD ip followed by MOG35-55/CFA immunization, draining lymph nodes 10 days later): significant increase
- IgG serum antibodies to myelin antigens [1]: significant decrease in IgG serum antibodies to 97 myelin antigens

SMILES: COC(=O)c1csc(C(=O)c2c[nH]c3ccccc23)n1 [ITE, 2-(1′H-indole-3′-carbonyl)-thiazole-4-carboxylic acid methyl ester]
- MOG35-55-specific suppressive activity of CD4+ FoxP3:GFP+ Treg (CD4+Foxp3:GFP+ Treg; Treg from ITE-treated mice, 2D2 Teff as responders): increased MOG35-55-specific suppressive activity
- protection from EAE by transfer of CD4+ T cells (C57BL/6 mice; CD4+ T cells from mice treated with oral or intraperitoneal ITE): Protection from EAE could be transferred
- number of CD4+FoxP3:GFP+ Treg in blood and spleen (CD4+Foxp3+ Treg; Foxp3gfp knock in mice, ITE ip daily, ten days after MOG35-55/CFA): significant increase in the number
- levels of LAP+ regulatory T cells (CD4+Foxp3+ Treg; [4]): did lead to significant alterations
- number of CD4+FoxP3+ Treg (CD4+Foxp3+ Treg; [4]): significant increase in the number
- levels of LAP+ regulatory T cells (CD4+Foxp3+ Treg; [5]): did lead to significant alterations
- number of CD4+FoxP3+ Treg (CD4+Foxp3+ Treg; [5]): significant increase in the number
